Source: patent US6861390B2, “Derivatives of UK-2A” (priority 2001, dated 2005)

Experiments:
[1] = system: Rhizoctonia solani (RHIZSO); experiment: microbe, parasite or virus in culture; format: cell-based; settings: read-out: T10 RHIZSO in vitro Growth Inhibition
[2] = system: Erysiphe graminis (ERYSGT); experiment: Powdery Mildew of Wheat, whole plant 24 Hour Protectant (T1); settings: Blumeria graminis, in Triticum aestivum, read-out: T1 ERYSGT in vivo 1 Day Protectant, control of fungal infection
[3] = system: Stagonospora nodorum (Leptosphaeria nodorum, LEPTNO); experiment: microbe, parasite or virus in culture; format: cell-based; settings: Parastagonospora nodorum, read-out: T7 LEPTNO in vitro Growth Inhibition
[4] = system: Mycosphaerella graminicola (Septoria tritici, SEPTTR); experiment: microbe, parasite or virus in culture; format: cell-based; settings: Zymoseptoria tritici, read-out: T11 SEPTTR in vitro Growth Inhibition
[5] = system: Magnaporthe grisea (Pyricularia oryzae, PYRIOR); experiment: microbe, parasite or virus in culture; format: cell-based; settings: read-out: T9 PYRIOR in vitro Growth Inhibition
[6] = system: Phytophthora infestans (PHYTIN); experiment: microbe, parasite or virus in culture; format: cell-based; settings: in Secale cereale, read-out: T8 PHYTIN in vitro Growth Inhibition
[7] = system: Leptosphaeria nodorum (LEPTNO); experiment: Glume Blotch of Wheat, whole plant 24 Hour Protectant (T2); settings: Parastagonospora nodorum; wheat (cultivar Yuma), sprayed at 100 ppm, inoculated after 24 hours; read-out: T2 LEPTNO in vivo 1 Day Protectant, control of fungal infection
[8] = system: Ustilago maydis (USTIMA); experiment: microbe, parasite or virus in culture; format: cell-based; settings: Mycosarcoma maydis, read-out: T12 USTIMA in vitro Growth Inhibition
[9] = system: Phytophthora infestans (PHYTIN); experiment: whole plant or invertebrate; settings: in Solanum lycopersicum, 24 h, read-out: T3 PHYTIN in vivo 1 Day Protectant, control of fungal infection
[10] = system: Puccinia recondita (PUCCRT); experiment: Brown Rust of Wheat, whole plant 24 Hour Protectant (T5); settings: wheat (cultivar Yuma), sprayed at 100 ppm, inoculated after 24 hours, read-out: T5 PUCCRT in vivo 1 Day Protectant, control of fungal infection
[11] = system: Septoria tritici (SEPTTR); experiment: Leaf Blotch of Wheat, whole plant 24 Hour Protectant (T6); settings: Zymoseptoria tritici; wheat (cultivar Monon), sprayed at 100 ppm, inoculated after 24 hours; read-out: T6 SEPTTR in vivo 1 Day Protectant, control of fungal infection

SMILES | inhibition at 25 ppm [1] [%] | pest or weed control at 100 ppm [2] [%] | inhibition at 25 ppm [3] [%] | inhibition at 25 ppm [4] [%] | inhibition at 25 ppm [5] [%] | melting point [°C] | inhibition at 25 ppm [6] [%] | pest or weed control at 100 ppm [7] [%] | inhibition at 25 ppm [8] [%] | pest or weed control at 100 ppm [9] [%] | pest or weed control at 100 ppm [10] [%] | pest or weed control at 100 ppm [11] [%]
COc1ccnc(C(=O)N[C@H]2COC(=O)[C@H](Cc3ccccc3)[C@@H](OC(=O)C(C)C)[C@H](C)OC2=O)c1OCSC [Compound 18] | > 80 | < 25 | > 80 | > 80 | > 80 | 146 to 148 | < 80 | 75 to 100 | < 80 | < 25 | 75 to 100 | –
COc1ccnc(C(=O)N[C@H]2COC(=O)[C@H](Cc3ccccc3)[C@@H](OC(=O)C(C)C)[C@H](C)OC2=O)c1OCSc1ccccc1 [Compound 19] | > 80 | < 25 | > 80 | > 80 | > 80 | 133 to 135 | < 80 | 75 to 100 | < 80 | < 25 | 75 to 100 | –
COc1ccnc(C(=O)N[C@H]2COC(=O)[C@H](Cc3ccccc3)[C@@H](OC(=O)C(C)C)[C@H](C)OC2=O)c1OCOC(C)=O [Compound 20] | < 80 | 75 to 100 | > 80 | < 80 | < 80 | 146 to 147 | < 80 | 75 to 100 | > 80 | < 25 | 75 to 100 | 75 to 100
CCCC(=O)OCOc1c(OC)ccnc1C(=O)N[C@H]1COC(=O)[C@H](Cc2ccccc2)[C@@H](OC(=O)C(C)C)[C@H](C)OC1=O [Compound 22] | < 80 | 75 to 100 | > 80 | < 80 | < 80 | 102 to 105 | < 80 | 75 to 100 | < 80 | < 25 | 75 to 100 | 75 to 100
COc1ccnc(C(=O)N[C@H]2COC(=O)[C@H](Cc3ccccc3)[C@@H](OC(=O)C(C)C)[C@H](C)OC2=O)c1OCOC(=O)C(C)(C)C [Compound 24] | < 80 | 25 to 74 | < 80 | > 80 | > 80 | 178 to 179 | < 80 | 75 to 100 | < 80 | < 25 | 75 to 100 | 75 to 100
CCCO[C@H]1[C@H](C)OC(=O)[C@@H](NC(=O)c2nccc(OC)c2OCOC(C)=O)COC(=O)[C@@H]1Cc1ccccc1 [Compound 51] | > 80 | 75 to 100 | > 80 | > 80 | > 80 | 65 to 120 | < 80 | 75 to 100 | < 80 | < 25 | 75 to 100 | –
C=C(C)CO[C@H]1[C@H](C)OC(=O)[C@@H](NC(=O)c2nccc(OC)c2OCOC(C)=O)COC(=O)[C@@H]1Cc1ccccc1 [Compound 53] | < 80 | < 25 | > 80 | > 80 | > 80 | 102 to 104 | > 80 | 75 to 100 | < 80 | < 25 | 75 to 100 | –
COCCOCC(=O)OCOc1c(OC)ccnc1C(=O)N[C@H]1COC(=O)[C@H](Cc2ccccc2)[C@@H](OCSC)[C@H](C)OC1=O [Compound 74] | < 80 | 25 to 74 | > 80 | > 80 | > 80 | – | < 80 | 75 to 100 | > 80 | < 25 | 75 to 100 | 25 to 74
